Patent US10202361B2, “Pyridazinones as herbicides” (E I DU PONT DE NEMOURS AND COMPANY, priority 2014, dated 2019)
Like-named read-outs stand apart in the source and are kept apart here.

Key:
Type in all cases: in vivo
[1] = system: wheat (Triticum aestivum); assay: Test A pre-/postemergence greenhouse herbicide test; conditions: Triticum aestivum, 240 h, 0 to 100 scale (0 no effect, 100 complete control), approx. 10 d, read-out: Plant response rating, Wheat; for plant injury at 125 g/ha: 125 g ai/ha; for plant injury at 500 g/ha: 500 g ai/ha
How it was run: (§1)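 Greenhouse pre- and postemergence treatment in loam/sand soil, test chemicals in non-phytotoxic solvent with surfactant; postemergence plants 2–10 cm, one- to two-leaf stage. Visual injury rated after approximately 10 d versus untreated controls, 0 (no effect) to 100 (complete control).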

[2] = system: barnyardgrass (Echinochloa crus-galli); assay: as above; conditions: Echinochloa crus-galli, 240 h, 0 to 100 scale (0 no effect, 100 complete control), approx. 10 d, read-out: Plant response rating, Barnyardgrass; for pest or weed control at 125 g/ha: 125 g ai/ha; for pest or weed control at 500 g/ha: 500 g ai/ha
How it was run: as §1

[3] = system: morningglory (Ipomoea spp.); assay: as above; conditions: Ipomoea, 240 h, 0 to 100 scale (0 no effect, 100 complete control), approx. 10 d, read-out: Plant response rating, Morningglory; for pest or weed control at 125 g/ha: 125 g ai/ha; for pest or weed control at 500 g/ha: 500 g ai/ha
How it was run: as §1

[4] = system: foxtail, giant (giant foxtail, Setaria faberii); assay: as above; conditions: Setaria faberi, 240 h, 0 to 100 scale (0 no effect, 100 complete control), approx. 10 d, read-out: Plant response rating, Foxtail, Giant; for pest or weed control at 125 g/ha: 125 g ai/ha; for pest or weed control at 500 g/ha: 500 g ai/ha
How it was run: as §1

corn (Zea mays) = assay: as above; conditions: Zea mays, 240 h, 0 to 100 scale (0 no effect, 100 complete control), approx. 10 d; for Corn plant response rating (crop injury, 0 = no effect, 100 = complete kill) at 125 g/ha: 125 g ai/ha; for Corn plant response rating (crop injury, 0 = no effect, 100 = complete kill) at 500 g/ha: 500 g ai/ha
How it was run: as §1

[5] = system: velvetleaf (Abutilon theophrasti); assay: as above; conditions: Abutilon theophrasti, 240 h, 0 to 100 scale (0 no effect, 100 complete control), approx. 10 d, read-out: Plant response rating, Velvetleaf; for pest or weed control at 125 g/ha: 125 g ai/ha; for pest or weed control at 500 g/ha: 500 g ai/ha
How it was run: as §1

[6] = system: pigweed (Amaranthus retroflexus); assay: as above; conditions: Amaranthus retroflexus, 240 h, 0 to 100 scale (0 no effect, 100 complete control), approx. 10 d, read-out: Plant response rating, Pigweed; for pest or weed control at 125 g/ha: 125 g ai/ha; for pest or weed control at 500 g/ha: 500 g ai/ha
How it was run: as §1

[7] = system: crabgrass, Large (large crabgrass, Digitaria sanguinalis); assay: as above; conditions: Digitaria sanguinalis, 240 h, 0 to 100 scale (0 no effect, 100 complete control), approx. 10 d, read-out: Plant response rating, Crabgrass, Large; for pest or weed control at 125 g/ha: 125 g ai/ha; for pest or weed control at 500 g/ha: 500 g ai/ha
How it was run: as §1

[8] = system: wheat (winter wheat, Triticum aestivum); assay: Test C pre-/postemergence greenhouse herbicide test; conditions: for plant injury at 62 g/ha: 62 g ai/ha; for plant injury at 125 g/ha: 125 g ai/ha; for plant injury at 250 g/ha: 250 g ai/ha; for Plant response rating, Wheat: visual rating on scale 0 (no effect) to 100 (complete control), 13 to 15 d
How it was run: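 Seeds in loam–sand blend sprayed preemergence, and 1- to 4-leaf plants (2–18 cm) sprayed postemergence, with compounds in non-phytotoxic solvent plus surfactant. Visual rating versus controls after 13–15 d in greenhouse, 0 (no effect) to 100 (complete control).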

[9] = Triticum aestivum, post-emergence, Wheat, Postemergence, read-out: Plant response rating
[10] = Triticum aestivum, pre-emergence, Wheat, Preemergence, read-out: Plant response rating

In the case of `Cc1cc(=O)n(-c2ccc(F)cc2)nc1Oc1ccnc(C(F)(F)F)c1` [Compound 14, 2-(4-fluorophenyl)-5-methyl-6-[[2-(trifluoromethyl)-4-pyridinyl]oxy]-3 (2H)-pyridazinone], the plant injury at 125 g/ha ([1]; post-emergence, Postemergence) is reported as 40%, the plant injury at 500 g/ha ([1]; post-emergence, Postemergence) is reported as 70% and the plant injury at 125 g/ha ([1]; pre-emergence, Preemergence) is reported as 10%. The plant injury at 500 g/ha ([1]; pre-emergence, Preemergence) was 60%, the pest or weed control at 125 g/ha ([2]; post-emergence, Postemergence) was 80% and the pest or weed control at 500 g/ha ([2]; post-emergence, Postemergence) was 90%. The pest or weed control at 125 g/ha ([2]; pre-emergence, Preemergence) was 70%, the pest or weed control at 500 g/ha ([2]; pre-emergence, Preemergence) was 100% and the pest or weed control at 125 g/ha ([3]; post-emergence, Postemergence) was 90%. The pest or weed control at 500 g/ha ([3]; post-emergence, Postemergence) was 100%, the pest or weed control at 125 g/ha ([3]; pre-emergence, Preemergence) was 80% and the pest or weed control at 500 g/ha ([3]; pre-emergence, Preemergence) was 100%. The pest or weed control at 125 g/ha ([4]; post-emergence, Postemergence) was 90%, the pest or weed control at 500 g/ha ([4]; post-emergence, Postemergence) was 90% and the pest or weed control at 125 g/ha ([4]; pre-emergence, Preemergence) was 90%. The pest or weed control at 500 g/ha ([4]; pre-emergence, Preemergence) was 90%, the Corn plant response rating (crop injury, 0 = no effect, 100 = complete kill) at 125 g/ha (corn (Zea mays); post-emergence, Postemergence) was 50% and the Corn plant response rating (crop injury, 0 = no effect, 100 = complete kill) at 500 g/ha (corn (Zea mays); post-emergence, Postemergence) was 70%. For the same molecule, the Corn plant response rating (crop injury, 0 = no effect, 100 = complete kill) at 125 g/ha (corn (Zea mays); pre-emergence, Preemergence) was 0%, the Corn plant response rating (crop injury, 0 = no effect, 100 = complete kill) at 500 g/ha (corn (Zea mays); pre-emergence, Preemergence) was 50% and the pest or weed control at 125 g/ha ([5]; post-emergence, Postemergence) was 80%. It also gave a pest or weed control at 500 g/ha ([5]; post-emergence, Postemergence) of 90%, a pest or weed control at 125 g/ha ([5]; pre-emergence, Preemergence) of 30% and a pest or weed control at 500 g/ha ([5]; pre-emergence, Preemergence) of 100%. For the same molecule, the pest or weed control at 125 g/ha ([6]; post-emergence, Postemergence) was 100%, the pest or weed control at 500 g/ha ([6]; post-emergence, Postemergence) was 100% and the pest or weed control at 125 g/ha ([6]; pre-emergence, Preemergence) was 100%. The pest or weed control at 500 g/ha ([6]; pre-emergence, Preemergence) was 100%, the pest or weed control at 125 g/ha ([7]; post-emergence, Postemergence) was 90% and the pest or weed control at 500 g/ha ([7]; post-emergence, Postemergence) was 90%. The pest or weed control at 125 g/ha ([7]; pre-emergence, Preemergence) was 90%, the pest or weed control at 500 g/ha ([7]; pre-emergence, Preemergence) was 90% and the plant injury at 31 g/ha ([8]; Triticum aestivum, post-emergence, Wheat, Postemergence, 31 g ai/ha, read-out: Plant response rating) was 5%. For the same molecule, the plant injury at 62 g/ha [8, 9] was 5%, the plant injury at 125 g/ha [8, 9] was 5% and the plant injury at 250 g/ha [8, 9] was 5%. It also gave a plant injury at 62 g/ha [8, 10] of 0%, a plant injury at 125 g/ha [8, 10] of 15% and a plant injury at 250 g/ha [8, 10] of 25%.
In the case of `CCOc1cc(=O)n(-c2ccc(F)cc2)nc1C(O)c1ccnc(C(F)(F)F)c1` (centres unmarked) [Compound 23, 5-ethoxy-2-(4-fluorophenyl)-6-[hydroxy[2-(trifluoromethyl)-4-pyridinyl]methyl]-3(2H)-pyridazinone], the plant injury at 125 g/ha ([1]; post-emergence, Postemergence) is reported as 80%, the plant injury at 500 g/ha ([1]; post-emergence, Postemergence) is reported as 90% and the plant injury at 125 g/ha ([1]; pre-emergence, Preemergence) is reported as 0%. It also gave a plant injury at 500 g/ha ([1]; pre-emergence, Preemergence) of 90%, a pest or weed control at 125 g/ha ([2]; post-emergence, Postemergence) of 20% and a pest or weed control at 500 g/ha ([2]; post-emergence, Postemergence) of 100%. The pest or weed control at 125 g/ha ([2]; pre-emergence, Preemergence) was 20%, the pest or weed control at 500 g/ha ([2]; pre-emergence, Preemergence) was 100% and the pest or weed control at 125 g/ha ([3]; post-emergence, Postemergence) was 20%. For the same molecule, the pest or weed control at 500 g/ha ([3]; post-emergence, Postemergence) was 60%, the pest or weed control at 125 g/ha ([3]; pre-emergence, Preemergence) was 100% and the pest or weed control at 500 g/ha ([3]; pre-emergence, Preemergence) was 100%. The pest or weed control at 125 g/ha ([4]; post-emergence, Postemergence) was 50%, the pest or weed control at 500 g/ha ([4]; post-emergence, Postemergence) was 90% and the pest or weed control at 125 g/ha ([4]; pre-emergence, Preemergence) was 100%. The pest or weed control at 500 g/ha ([4]; pre-emergence, Preemergence) was 100%, the Corn plant response rating (crop injury, 0 = no effect, 100 = complete kill) at 125 g/ha (corn (Zea mays); post-emergence, Postemergence) was 50% and the Corn plant response rating (crop injury, 0 = no effect, 100 = complete kill) at 500 g/ha (corn (Zea mays); post-emergence, Postemergence) was 90%. The Corn plant response rating (crop injury, 0 = no effect, 100 = complete kill) at 125 g/ha (corn (Zea mays); pre-emergence, Preemergence) was 0%, the Corn plant response rating (crop injury, 0 = no effect, 100 = complete kill) at 500 g/ha (corn (Zea mays); pre-emergence, Preemergence) was 20% and the pest or weed control at 125 g/ha ([5]; post-emergence, Postemergence) was 20%. For the same molecule, the pest or weed control at 500 g/ha ([5]; post-emergence, Postemergence) was 70%, the pest or weed control at 125 g/ha ([5]; pre-emergence, Preemergence) was 80% and the pest or weed control at 500 g/ha ([5]; pre-emergence, Preemergence) was 100%. For the same molecule, the pest or weed control at 125 g/ha ([6]; post-emergence, Postemergence) was 100%, the pest or weed control at 500 g/ha ([6]; post-emergence, Postemergence) was 100% and the pest or weed control at 125 g/ha ([6]; pre-emergence, Preemergence) was 100%. The pest or weed control at 500 g/ha ([6]; pre-emergence, Preemergence) was 100%, the pest or weed control at 125 g/ha ([7]; post-emergence, Postemergence) was 60% and the pest or weed control at 500 g/ha ([7]; post-emergence, Postemergence) was 100%. The pest or weed control at 125 g/ha ([7]; pre-emergence, Preemergence) was 100%, the pest or weed control at 500 g/ha ([7]; pre-emergence, Preemergence) was 100% and the “Plant response rating, Wheat” value ([8]; Preemergence, 8 g ai/ha) was 0. The “Plant response rating, Wheat” value ([8]; Preemergence, 16 g ai/ha) was 0 and the plant injury at 62 g/ha [8, 10] was 10%.
